Patent US6780870B2, “Pyrimidine derivatives as selective inhibitors of COX-2” (SmithKline Beecham Corporation, priority 2000, dated 2004)

Tests used:
[1] = molecular target: T1, human COX-1 (Homo sapiens, UniProt P23219); experiment: Inhibition of PGE2 release in COS cells stably transfected with human COX-1; type: cell-based; conditions: COS cells stably transfected with cDNA for human COX-1; PGE2 release by enzyme immunoassay; 1 hour preincubation; 30 μM arachidonic acid, 15 minutes
T1 construct: expressed in transfected cells
Procedure: (§1) Inhibitory activity against human COX-1 and COX-2 was assessed in COS cells which had been stably transfected with cDNA for human COX-1 and human COX-2. 24 Hours prior to experiment, COS cells were transferred from the 175 cm^2 flasks in which they were grown, onto 24-well cell culture plates using the following procedure. The incubation medium (Dulbecco's modified eagles medium (DMEM) supplemented with heat-inactivated foetal calf serum (10% v/v), penicillin (100 IU/ml), streptomycin (100 μg/ml) and geneticin (600 μg/ml)) was removed from a flask of confluent cells (1 flask at confluency contains approximately 1×10^7 cells). 10 ml of phosphate buffered saline (PBS) was added to the flask to wash the cells. Having discarded the PBS, cells were then rinsed in 10 ml trypsin for 20 seconds, after which the trypsin was removed and the flask placed in an incubator (37°) for 1-2 minutes until cells became detached from the flask. The flask was then removed from the incubator and cells resuspended in 10 ml of fresh incubation medium. The contents of the flask was transferred to a 250 ml sterile container and the volume of incubation medium subsequently made up to 100 ml. 1 ml cell suspension was pipetted into each well of 4×24-well cell culture plates. The plates were then placed in an incubator (37° C., 95% air/5% CO2) overnight. If more than 1 flask of cells were required, the cells from the individual flasks were combined before being dispensed into the 24-well plates.
(§2) Following the overnight incubation, the incubation medium was completely removed from the 24-well cell culture plates and replaced with 250 μl fresh DMEM (37° C.). The test compounds were made up to 250× the required test concentration in DMSO and were added to the wells in a volume of 1 μl. Plates were then mixed gently by swirling and then placed in an incubator for 1 hour (37° C., 95% air/5% CO2). […] Plates were then incubated for a further 15 minutes, after which the incubation medium was removed from each well of the plates and stored at −20° C., prior to determination of prostaglandin E2 (PGE2) levels using enzyme immunoassay. […] The selectivity ratio of inhibition of COX-1 versus COX-2 was calculated by comparing respective IC50 values.

[2] = molecular target: T2, human COX-2 (Homo sapiens, UniProt P35354); experiment: Inhibition of PGE2 release in COS cells stably transfected with human COX-2; type: cell-based; conditions: COS cells stably transfected with cDNA for human COX-2; PGE2 release by enzyme immunoassay; 1 hour preincubation; 30 μM arachidonic acid, 15 minutes
T2 construct: expressed in transfected cells
T2 sequence (P35354 18-604): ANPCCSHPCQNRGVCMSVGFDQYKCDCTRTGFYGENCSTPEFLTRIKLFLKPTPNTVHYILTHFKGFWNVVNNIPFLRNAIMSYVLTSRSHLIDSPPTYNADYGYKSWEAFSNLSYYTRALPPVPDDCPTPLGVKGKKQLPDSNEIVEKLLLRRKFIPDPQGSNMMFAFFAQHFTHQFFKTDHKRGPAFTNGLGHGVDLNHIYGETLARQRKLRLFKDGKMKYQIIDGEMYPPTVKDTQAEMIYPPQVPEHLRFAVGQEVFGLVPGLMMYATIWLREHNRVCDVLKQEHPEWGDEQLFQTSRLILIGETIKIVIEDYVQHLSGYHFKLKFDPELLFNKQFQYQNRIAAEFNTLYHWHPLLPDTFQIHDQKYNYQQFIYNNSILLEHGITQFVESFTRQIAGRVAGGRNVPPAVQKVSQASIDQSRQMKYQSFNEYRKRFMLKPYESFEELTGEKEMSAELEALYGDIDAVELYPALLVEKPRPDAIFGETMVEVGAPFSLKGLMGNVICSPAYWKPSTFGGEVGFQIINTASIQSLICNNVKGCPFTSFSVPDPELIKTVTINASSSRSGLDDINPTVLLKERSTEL
Procedure: as §1, §2

T1 sequence (P23219 24-599): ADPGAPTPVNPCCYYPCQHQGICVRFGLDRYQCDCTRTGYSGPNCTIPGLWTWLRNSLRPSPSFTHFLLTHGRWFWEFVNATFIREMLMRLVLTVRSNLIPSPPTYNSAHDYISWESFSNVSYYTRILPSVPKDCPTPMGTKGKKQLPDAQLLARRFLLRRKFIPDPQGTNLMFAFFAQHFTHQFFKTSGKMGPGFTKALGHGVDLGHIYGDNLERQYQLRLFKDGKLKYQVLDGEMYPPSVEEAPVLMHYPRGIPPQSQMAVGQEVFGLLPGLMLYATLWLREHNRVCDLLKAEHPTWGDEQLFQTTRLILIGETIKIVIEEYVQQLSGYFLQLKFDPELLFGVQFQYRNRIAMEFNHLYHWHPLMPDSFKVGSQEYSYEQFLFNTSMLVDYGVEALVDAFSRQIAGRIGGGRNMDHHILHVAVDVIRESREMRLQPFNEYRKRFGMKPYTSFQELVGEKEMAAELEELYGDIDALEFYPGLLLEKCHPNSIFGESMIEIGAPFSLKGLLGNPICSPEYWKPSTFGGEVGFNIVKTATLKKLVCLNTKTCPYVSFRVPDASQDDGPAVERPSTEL

SMILES | IC50 [1] | IC50 [2]
CS(=O)(=O)c1ccc(-c2cc(C(F)(F)F)nc(NCc3ccncc3)n2)cc1 [Example 1, 4-[4-(Methylsulfonyl)phenyl]-N-(pyridin-4-ylmethyl)-6-(trifluoromethyl)pyrimidin-2-amine] | > 100000 nM | 1.3 nM
CS(=O)(=O)c1ccc(-c2cc(C(F)(F)F)nc(NCc3cccnc3)n2)cc1 [Example 2, 4-[4-(Methylsulfonyl)phenyl]-N-(pyridin-3-ylmethyl)-6-(trifluoromethyl)pyrimidin-2-amine] | > 100000 nM | 10.8 nM
COc1ccc(CNc2nc(-c3ccc(S(C)(=O)=O)cc3)cc(C(F)(F)F)n2)cc1 [Example 9, N-(4-methoxybenzyl)-4-[4-(methylsulfonyl)phenyl]-6-(trifluoromethyl)pyrimidin-2-amine] | > 100000 nM | 34 nM

Results, then the compound that gave them:

IC50 [1] | IC50 [2] | SMILES
> 100000 nM | 2.5 nM | CS(=O)(=O)c1ccc(-c2cc(C(F)(F)F)nc(NCc3ccccn3)n2)cc1 [Example 3, 4-[4-(Methylsulfonyl)phenyl]-N-(pyridin-2-ylmethyl)-6-(trifluoromethyl)pyrimidin-2-amine]
> 100000 nM | 0.25 nM | CS(=O)(=O)c1ccc(-c2cc(C(F)(F)F)nc(NCc3ccccc3)n2)cc1 [Example 4, 4-[4-(Methylsulfonyl)phenyl]-N-(phenylmethyl)-6-(trifluoromethyl)-2-pyrimidinamine]
